Laboratory results reported in ChEMBL document CHEMBL1139298, “Synthesis and biological evaluation of novel 2,4,5-substituted pyrimidine derivatives for anticancer activity” (Bioorg Med Chem Lett, 2009).

Legend:
[1] = test system: Bel-7402; assay: Cytotoxicity against human Bel7402 cells after 72 hrs by SRB assay; format: functional, cell-based; conditions: Bel-7402, 72 h
[2] = Cytotoxicity against human WI38 cells after 72 hrs by SRB assay; format: cell-based; conditions: WI-38, 72 h
[3] = test system: Calu-3; assay: Cytotoxicity against human Calu3 cells after 72 hrs by SRB assay; format: functional, cell-based; conditions: Calu-3, 72 h
[4] = test system: SGC-7901; assay: Cytotoxicity against human SGC7901 cells after 72 hrs by SRB assay; format: functional, cell-based; conditions: SGC-7901, 72 h
[5] = test system: NCI-H460; assay: Cytotoxicity against human NCI-H460 cells after 72 hrs by SRB assay; format: functional, cell-based; conditions: NCI-H460, 72 h
[6] = test system: HT-29; assay: cells; conditions: Homo sapiens, HT-29, 72 h
Description: Cytotoxicity against human HT-29 cells after 72 hrs by SRB assay

[7] = test system: SK-BR-3; assay: Cytotoxicity against human SKBR3 cells after 72 hrs by SRB assay; format: functional, cell-based; conditions: SK-BR-3, 72 h

Row | SMILES | IC50 [1] | IC50 [2] | other results
1 | Cc1ncc(-c2ccc(N)cc2)c(-c2ccccc2O)n1 | > 10 µM | > 10 µM | –
2 | Cc1ncc(-c2ccccc2F)c(-c2ccccc2O)n1 | > 10 µM | > 10 µM | –
3 | Cc1ncc(-c2ccc(OC(F)(F)F)cc2)c(-c2ccccc2O)n1 | > 10 µM | > 10 µM | –
4 | Nc1ncc(-c2ccc(OCCCOCc3ccccc3)cc2)c(-c2ccccc2O)n1 | > 10 µM | > 10 µM | –
5 | Nc1ncc(-c2ccc(OC(F)(F)F)cc2)c(-c2ccccc2O)n1 | > 10 µM | > 10 µM | –
6 | Nc1ncc(-c2ccc(O)cc2)c(-c2ccccc2O)n1 | > 10 µM | > 10 µM | –
7 | COC(=O)c1ncc(-c2ccc(OC)cc2)c(-c2ccccc2O)n1 | > 10 µM | > 10 µM | –
8 | CNC(=O)c1ncc(-c2ccc(OC)cc2)c(-c2ccccc2O)n1 | > 10 µM | > 10 µM | –
9 | Cc1ncc(-c2cccc(C(F)(F)F)c2)c(-c2ccccc2O)n1 | > 10 µM | > 10 µM | –
10 | Cc1ncc(-c2ccc(Cl)cc2)c(-c2ccccc2O)n1 | > 10 µM | > 10 µM | –
11 | Cc1ncc(-c2ccc(NC(=O)OC(C)(C)C)cc2)c(-c2ccccc2O)n1 | > 10 µM | > 10 µM | –
12 | COc1cc(-c2cnc(C)nc2-c2ccccc2O)cc(OC)c1OC | > 10 µM | > 10 µM | –
13 | Nc1ncc(-c2ccccc2F)c(-c2ccccc2O)n1 | > 10 µM | > 10 µM | –
14 | COc1cc(-c2cnc(N)nc2-c2ccccc2O)cc(OC)c1OC | > 10 µM | > 10 µM | –
15 | Nc1ncc(-c2cccc(C(F)(F)F)c2)c(-c2ccccc2O)n1 | > 10 µM | > 10 µM | –
16 | Nc1ncc(-c2ccc(OCCN3CCCC3)cc2)c(-c2ccccc2O)n1 | > 10 µM | > 10 µM | –
17 | CC(=O)O[C@@]12CO[C@@H]1C[C@H](O)[C@@]1(C)C(=O)[C@H](O)C3=C(C)[C@@H](OC(=O)[C@H](O)[C@@H](NC(=O)OC(C)(C)C)c4ccccc4)C[C@@](O)([C@@H](OC(=O)c4ccccc4)[C@H]21)C3(C)C [DOCETAXEL] | – | > 10 µM | IC50 [3]: 0.1 µM; IC50 [4]: 0.0084 µM; IC50 [5]: 0.0097 µM
18 | COc1cccc2c1C(=O)c1c(O)c3c(c(O)c1C2=O)C[C@@](O)(C(=O)CO)C[C@@H]3O[C@H]1C[C@H](N)[C@H](O)[C@H](C)O1 [DOXORUBICIN] | 0.021 µM | > 10 µM | IC50 [6]: 0.018 µM
19 | CS(=O)(=O)CCNCc1ccc(-c2ccc3ncnc(Nc4ccc(OCc5cccc(F)c5)c(Cl)c4)c3c2)o1 [LAPATINIB] | – | > 10 µM | IC50 [7]: 0.017 µM
